Measurements from US8193171B2, “13,13-dimethyl-des-C,D analogs of 1α,25-dihydroxy-19-nor-vitamin D3 compounds and topical composition dosage forms and methods of treating skin conditions thereof” (Wisconsin Alumni Research Foundation, priority 2008, dated 2012).

Assays:
Rhino mouse comedones = assay: Comedolytic effect of daily topical application in the Rhino mouse; type: in vivo; settings: for Comedone Area (% Vehicle): Rhino mouse, topical daily ca. 3 weeks, 70 vol % ethanol / 30 vol % propylene glycol, mean ± SEM, N 6
Source text: Rhino mice were used to topically test the compounds and compositions of the invention. The Rhino mouse is a well-established animal model used to study the comedolytic effects of anti-acne agents including retinoids. (See Boulcier M et al., 1990, Experimental Models in Skin Pharmacology, In Pharmacological Reviews 42:127-154). The Rhino mouse model was used to study the therapeutic potential of 13Me2.
Animals and dose administration. Rhino mice were enrolled in the study at 6-8 weeks of age and were dosed daily via the topical route. The mice were weighed three times per week and doses were adjusted weekly based on body weight. The topical formulations were applied to the back of the animal in a maximum volume of 100 μL. The topical formulations were made by mixing the 13Me2 with a topical carrier comprising 70 vol % ethanol and 30 vol % propylene glycol, as indicated. The topical vehicle control was the vehicle carrier solution matched to the formulation containing API and vehicle carrier. Mice were sacrificed 72 hours after the final topical dose. At sacrifice, the dorsal skin was collected for histology studies.
Comedolytic effect. The extent of the comedolytic effect (i.e., efficacy) was assessed by measuring the average area of the comedones, whereby the smaller the area, the larger the effect. The comedone area was determined by histological analysis of tissue sections based upon lab methods. Skin was fixed overnight in 4% paraformaldehyde at 4° C. with gentle agitation, and dehydrated the next day into 100% methanol.
Samples were embedded in paraffin and a total of nine 10μ sections 150μ apart were prepared from each Rhino mouse. Five of the nine sections were digitally imaged (6× magnification) for comedone analysis using Metamorph Imaging Software (trace function). The perimeter of each comedone on the images taken from the 5 sections was then traced using a Wacom Intuos 3 Graphics Tablet interfaced with the software.
The number of pixels comprising the area of each individual comedone was obtained, and the mean number of pixels per comedone was obtained for each Rhino mouse. For comedones that were completely healed (area=0) a pixel value approaching 0 (<10) was scored. The individual comedone area average for each mouse was then used to calculate the treatment group mean. Results in the figures are expressed in terms of mean±standard error of the mean.
Preparation of topical formulations containing 13Me2. A concentrated ethanolic stock of 13Me2 was diluted to a final concentration containing 30 vol % propylene glycol and 70 vol % ethanol as the excipient carrier system. The mixture was thoroughly mixed. The topical dosing formulation delivered a predetermined dosing amount of drug on a per kilogram body weight basis. […]

[1] = test system: intestinal calcium transport; assay: Intestinal calcium transport (everted gut sac method); type: in vivo, rat; settings: Sprague-Dawley rats, four consecutive intraperitoneal doses
Procedure: (§1) Intestinal Calcium Transport and Bone Calcium Mobilization Activity. Male, weanling Sprague-Dawley rats were placed on Diet 11 (0.47% Ca) diet+AEK oil for one week followed by Diet 11 (0.02% Ca)+AEK oil for 3 weeks. The rats were then switched to a diet containing 0.47% Ca for one week followed by two weeks on a diet containing 0.02% Ca. Dose administration began during the last week on 0.02% calcium diet. Four consecutive intraperitoneal doses were given approximately 24 hours apart. Twenty-four hours after the last dose, blood was collected from the severed neck and the concentration of serum calcium determined as a measure of bone calcium mobilization. The first 10 cm of the intestine was also collected for intestinal calcium transport analysis using the everted gut sac method.

[2] = molecular target: T1, Full-length recombinant rat receptor (vitamin D receptor, VDR) (Rattus norvegicus, UniProt P13053); assay: Competitive vitamin D receptor binding; settings: relative to 1.25(OH)2D3; radioligand 3H-1.25(OH)2D3 1 nM
T1 construct: Full-length recombinant rat receptor was expressed in E. coli; histidine tag (C); made in house; host or cells: E. coli BL21(DE3) Codon Plus RIL
T1 sequence (P13053 1-423): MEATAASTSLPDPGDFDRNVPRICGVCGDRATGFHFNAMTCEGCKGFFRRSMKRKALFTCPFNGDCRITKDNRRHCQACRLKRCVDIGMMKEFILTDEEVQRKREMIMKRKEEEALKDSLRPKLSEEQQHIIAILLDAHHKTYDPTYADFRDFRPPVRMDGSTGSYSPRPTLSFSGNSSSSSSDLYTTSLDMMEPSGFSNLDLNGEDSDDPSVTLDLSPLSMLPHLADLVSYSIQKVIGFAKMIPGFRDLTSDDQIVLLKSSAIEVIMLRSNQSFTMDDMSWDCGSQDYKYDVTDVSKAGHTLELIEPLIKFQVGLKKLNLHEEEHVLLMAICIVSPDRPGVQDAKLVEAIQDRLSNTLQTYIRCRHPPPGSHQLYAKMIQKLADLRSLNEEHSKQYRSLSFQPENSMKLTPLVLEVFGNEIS
Procedure: Experimental Methods. […] The first system was a nickel affinity resin that utilizes the C-terminal histidine tag on this protein. The protein that was eluted from this resin was further purified using ion exchange chromatography (S-Sepharose Fast Flow). Aliquots of the purified protein were quick frozen in liquid nitrogen and stored at −80° C. until use. For use in binding assays, the protein was diluted in TEDK50 (50 mM Tris, 1.5 mM EDTA, pH 7.4, 5 mM DTT, 150 mM KCl) with 0.1% Chaps detergent. The receptor protein and ligand concentration was optimized such that no more than 20% of the added radiolabeled ligand was bound to the receptor.
Assay Conditions. […] The hydroxylapaptite was collected by centrifugation and then washed three times with Tris-EDTA buffer (50 mM Tris, 1.5 mM EDTA, pH 7.4) containing 0.5% Titron X-100. After the final wash, the pellets were transferred to scintillation vials containing 4 ml of Biosafe II scintillation cocktail, mixed and placed in a scintillation counter. Total binding was determined from the tubes containing only radiolabeled ligand.

[3] = test system: 24-hydroxylase (24OHase) gene promoter; assay: In vitro 24-OHase transcription assay (luciferase reporter in ROS 17/2.8 bone cells); type: cell-based; settings: ROS 17/2.8 cells, sixteen hours after dosing
Procedure: In vitro Transcription Assay. Transcription activity was measured in ROS 17/2.8 (bone) cells that were stably transfected with a 24-hydroxylase (24OHase) gene promoter upstream of a luciferase reporter gene. (Arbour et al., 1998). Cells were given a range of doses. Sixteen hours after dosing the cells were harvested and luciferase activities were measured using a luminometer. RLU=relative luciferase units.

[4] = test system: bone calcium mobilization; assay: Bone calcium mobilization (serum calcium); type: in vivo, rat; settings: Sprague-Dawley rats, four consecutive intraperitoneal doses
Procedure: as §1

[5] = test system: Human promyelocytic leukemia (HL-60) cells; assay: HL-60 cell differentiation (nitro blue tetrazolium reduction); type: cell-based; settings: four days of treatment
Procedure: HL-60 Differentiation. Test Material. Study Drugs. The study drugs were dissolved in ethanol and the concentrations determined using UV spectrophotometry. Serial dilutions were prepared so that a range of drug concentrations could be tested without changing the final concentration of ethanol (<0.2%) present in the cell cultures.
Cells. Human promyelocytic leukemia (HL-60) cells were grown in RPMI-1640 medium containing 10% fetal bovine serum. The cells were incubated at 37° C. in the presence of 5% CO2.
Assay Conditions. HL-60 cells were plated at 1.2×10^5 cells/ml. Eighteen hours after plating, cells in duplicate were treated with drug. Four days later, the cells were harvested and a nitro blue tetrazolium reduction assay was performed. (Collins et al., 1979, J. Exp. Med. 149:969-974). The percentage of differentiated cells was determined by counting a total of 200 cells and recording the number that contained intracellular black-blue formazan deposits. Verification of differentiation to monocytic cells was determined by measuring phagocytic activity (data not shown).

SMILES | Comedone Area (% Vehicle) (Rhino mouse comedones; dose 6.0 nmol/kg) | Activity on intestinal calcium transport [1] | Comedone area relative to the vehicle-treated group (FIG. 6) (Rhino mouse comedones; Rhino mice, topical 217 nmole/kgBW/day, 3 weeks daily) | Comedone area relative to the vehicle-treated group (FIG. 7) (Rhino mouse comedones; Rhino mice, topical 69 and 217 nmole/kgBW/day, 3 weeks daily) | Comedone Area (% Vehicle) (Rhino mouse comedones; dose 217 nmol/kg) | VDR binding affinity compared to the native hormone [2] | 24-OHase transcription activity relative to 1.25(OH)2D3 [3] | Activity on bone calcium mobilization [4] | HL-60 differentiation activity relative to 1.25(OH)2D3 [5]
C=C1/C(=C\C=C2/CCC[C@]3(C)[C@@H]([C@H](C)CCCC(C)(C)O)CC[C@@H]23)C[C@@H](O)C[C@@H]1O [1,25(OH)2D3, 1,25-DIHYDROXYVITAMIN D3, reference compound] | 187 ± 30 |  |  |  |  |  |  |  | 
C=C1[C@H](O)CC(=C/C=C/CC(C)(C)C[C@@H](C)CCCC(C)(C)O)C[C@H]1O [13Me2, (1R,3R)-5-[(E)-(S)-11′-hydroxy-5′,5′,7′,11′-tetramethyl-dodec-2′-enylidene]-2-methylene-cyclohexane-1,3-diol] |  | insignificant activity | significant reduction in comedone area | dose-dependent reduction in comedone area | 26 ± 3 | one log less affinity | lower than 1.25(OH)2D3 by approximately one log | insignificant activity | lower than 1.25(OH)2D3 by approximately one log
